Results: ChEMBL document CHEMBL3603789, “N-Lipidated Peptide Dimers: Effective Antibacterial Agents against Gram-Negative Pathogens through Lipopolysaccharide Permeabilization” (J Med Chem, 2015)
Converted amounts (≈) assume the structure as drawn. The source made the active and inactive calls. The calls are words filed in the database; no cut-off is given here. Bridge positions count the residues as written; N and C are the ends. Peptide text beside a SMILES is read from it. I, II: the chains in the order shown. * marks the point of attachment. Palmitoyl = CCCCCCCCCCCCCCCC(=O)*; Decanoyl = CCCCCCCCCC(=O)*; Octanoyl = CCCCCCCC(=O)*; Butyryl = CCCC(=O)*

Key:
[1] = test system: Pseudomonas aeruginosa; test: Antibacterial activity against Pseudomonas aeruginosa DM23155 after 24 hrs by broth microdilution method; type: functional; conditions: DM23155, 24 h
[2] = test system: Pseudomonas aeruginosa; test: Induction of cytoplasmic membrane depolarization in Pseudomonas aeruginosa DM23155 at 4 times MIC after 1 hr by fluorescence assay; type: functional, organism-based
[3] = Toxicity in New Zealand white rabbit erythrocytes assessed as hemolytic activity after 60 mins; type: cell-based, Oryctolagus cuniculus; conditions: erythrocyte, 1 h
[4] = test system: Klebsiella pneumoniae; test: Antibacterial activity against Klebsiella pneumoniae DM4299 after 24 hrs by broth microdilution method; type: functional; conditions: DM4299, 24 h
[5] = test system: Escherichia coli; test: Antibacterial activity against Escherichia coli ATCC 25922 after 24 hrs by broth microdilution method; type: functional; conditions: ATCC 25922, 24 h
[6] = Self-aggregation activity of the compound using 8-(Phenylamino)-1-naphthalenesulfonic acid as fluorescent probe at 300 uM by fluorescence assay; type: physicochemical
[7] = test system: Pseudomonas aeruginosa; test: Antibacterial activity against Pseudomonas aeruginosa DR18531 after 24 hrs by broth microdilution method; type: functional
[8] = test system: Pseudomonas aeruginosa; test: Antibacterial activity against Pseudomonas aeruginosa DM23376 after 24 hrs by broth microdilution method; type: functional
[9] = test system: Pseudomonas aeruginosa; test: Antibacterial activity against Pseudomonas aeruginosa DR4877 after 24 hrs by broth microdilution method; type: functional
[10] = test system: Pseudomonas aeruginosa; test: Antibacterial activity against Pseudomonas aeruginosa DM4150R after 24 hrs by broth microdilution method; type: functional
[11] = test system: Pseudomonas aeruginosa; test: Antibacterial activity against Pseudomonas aeruginosa DM23257 after 24 hrs by broth microdilution method; type: functional
[12] = test system: Pseudomonas aeruginosa; test: Antibacterial activity against Pseudomonas aeruginosa DU14476 after 24 hrs by broth microdilution method; type: functional
[13] = test system: Pseudomonas aeruginosa; test: Antibacterial activity against Pseudomonas aeruginosa ATCC 27853 after 24 hrs by broth microdilution method; type: functional
[14] = test system: Pseudomonas aeruginosa; test: Antibacterial activity against Pseudomonas aeruginosa DR5790 after 24 hrs by broth microdilution method; type: functional
[15] = test system: Pseudomonas aeruginosa; test: Antibacterial activity against Pseudomonas aeruginosa ATCC 9027 after 24 hrs by broth microdilution method; type: functional
[16] = test system: Pseudomonas aeruginosa; test: Induction of 1-N-phenylnaphthylamine uptake in Pseudomonas aeruginosa DM23155 at 400 uM after 1 hr by fluorescence assay relative to polymyxin B; type: functional
[17] = test system: Lipopolysaccharide (LPS); test: Induction of Escherichia coli 0111:B4 LPS neutralization using p-nitroaniline assessed as concentration required to neutralize 50% after 1 hr by limulus amebocyte lysate assay
[18] = test system: Lipopolysaccharide (LPS); test: Displacement of dansylcadaverine from Escherichia coli 0111:B4 LPS at 15 to 30 uM after 5 mins by high-throughput fluorescence displacement assay
[19] = test system: Klebsiella pneumoniae; test: Antibacterial activity against Klebsiella pneumoniae DB55301 after 24 hrs by broth microdilution method; type: functional
[20] = test system: Klebsiella pneumoniae; test: Antibacterial activity against Klebsiella pneumoniae DS16260 after 24 hrs by broth microdilution method; type: functional
[21] = test system: Escherichia coli; test: Antibacterial activity against Escherichia coli DS17232 after 24 hrs by broth microdilution method; type: functional
[22] = test system: Escherichia coli; test: Antibacterial activity against Escherichia coli DM17528 after 24 hrs by broth microdilution method; type: functional
[23] = test system: Klebsiella pneumoniae; test: Antibacterial activity against Klebsiella pneumoniae DS07955 after 24 hrs by broth microdilution method; type: functional
[24] = test system: Klebsiella pneumoniae; test: Antibacterial activity against Klebsiella pneumoniae DU31158 after 24 hrs by broth microdilution method; type: functional
[25] = test system: Pseudomonas aeruginosa; test: Induction of cytoplasmic membrane disruption in Pseudomonas aeruginosa DM23155 assessed as membrane integrity at 1 to 2 times MIC after 1 hr by fluorescence assay; type: functional
[26] = Induction of calcein leakage from DOPE/DOPG artificial membrane at 1:32 ratio of compound to lipid by fluorescence assay; type: physicochemical
[27] = Induction of calcein leakage from DOPC artificial membrane at 1:32 ratio of compound to lipid by fluorescence assay; type: physicochemical

Compound: CCCCCCCC(=O)N[C@@H](CCCNC(=N)N)C(=O)NCC(=O)N[C@@H](CCCNC(=N)N)C(=O)N[C@@H](CCCCN)C(=O)NCC(=O)NCC(=O)N[C@@H](CCCNC(=N)N)C(=O)N[C@@H](CCCNC(=N)N)C(=O)N[C@@H](CCCCN)C(=O)N[C@@H](CCCCN)C(=O)O (Octanoyl-RGRKGGRRKK-OH)
- MIC [1]: 10 µM (≈ 13.2 µg/mL)
- Activity [2]: Active
- HC10 [3]: > 10000 µg/mL
- MIC [4]: 40 µM (≈ 53 µg/mL)
- MIC [5]: 6 µM (≈ 7.95 µg/mL)

Compound: CCCCCCCCCCCCCCCC(=O)N[C@@H](CCCNC(=N)N)C(=O)NCC(=O)N[C@@H](CCCNC(=N)N)C(=O)N[C@@H](CCCCN)C(=O)NCC(=O)NCC(=O)N[C@@H](CCCNC(=N)N)C(=O)N[C@@H](CCCNC(=N)N)C(=O)N[C@@H](CCCCN)C(=O)N[C@@H](CCCCN)C(=O)O (Palmitoyl-RGRKGGRRKK-OH)
- Activity [6]: Not Active
- MIC [1]: 80 µM (≈ 115 µg/mL)
- HC10 [3]: 5064 µg/mL
- MIC [4]: 80 µM (≈ 115 µg/mL)
- MIC [5]: 10 µM (≈ 14.4 µg/mL)

Compound: COc1c(N2CCNC(C)C2)c(F)cc2c(=O)c(C(=O)O)cn(C3CC3)c12 (stereo unspecified) [GATIFLOXACIN]
- MIC ([7]; DR18531, 24 h): 8 µM (≈ 3 µg/mL)
- MIC ([8]; DM23376, 24 h): 4 µM (≈ 1.5 µg/mL)
- MIC ([9]; DR4877, 24 h): 32 µM (≈ 12 µg/mL)
- MIC [10]: 2 µM (≈ 0.751 µg/mL)
- MIC ([11]; DM23257, 24 h): 2 µM (≈ 0.751 µg/mL)
- MIC ([12]; DU14476, 24 h): 64 µM (≈ 24 µg/mL)
- MIC ([13]; ATCC 27853, 24 h): 4 µM (≈ 1.5 µg/mL)
- MIC ([14]; DR5790, 24 h): 64 µM (≈ 24 µg/mL)
- MIC ([15]; ATCC 9027, 24 h): 2 µM (≈ 0.751 µg/mL)

Compound: CC(=O)N[C@@H](CCCNC(=N)N)C(=O)NCC(=O)N[C@@H](CCCNC(=N)N)C(=O)N[C@@H](CCCCN)C(=O)NCC(=O)NCC(=O)N[C@@H](CCCNC(=N)N)C(=O)N[C@@H](CCCNC(=N)N)C(=O)NCCCC[C@H](NC(=O)[C@H](CCCNC(=N)N)NC(=O)[C@H](CCCNC(=N)N)NC(=O)CNC(=O)CNC(=O)[C@H](CCCCN)NC(=O)[C@H](CCCNC(=N)N)NC(=O)CNC(=O)[C@H](CCCNC(=N)N)NC(C)=O)C(=O)N[C@@H](CCCCN)C(=O)O (I: Ac-RGRKGGRRKK-OH / II: Ac-RGRKGGRR; amide I:9-II:C)
- MIC [1]: 6 µM (≈ 13.2 µg/mL)
- Activity [16]: 1.6%
- EC50 [17]: > 1 mM
- HC10 [3]: > 10000 µg/mL
- MIC [4]: 3 µM (≈ 6.62 µg/mL)
- Activity [18]: 56.1%
- MIC [5]: 1.5 µM (≈ 3.31 µg/mL)

Compound: C[C@H]1COc2c(N3CCN(C)CC3)c(F)cc3c(=O)c(C(=O)O)cn1c23 [LEVOFLOXACIN]
- MIC ([19]; DB55301, 24 h): 80 µM (≈ 28.9 µg/mL)
- MIC ([20]; DS16260, 24 h): 10 µM (≈ 3.61 µg/mL)
- MIC ([21]; DS17232, 24 h): 20 µM (≈ 7.23 µg/mL)
- MIC ([22]; DM17528, 24 h): 80 µM (≈ 28.9 µg/mL)
- MIC ([23]; DS07955, 24 h): > 100 µM
- MIC ([24]; DU31158, 24 h): 0.03 µM (≈ 0.0108 µg/mL)

Compound: CCCCCCCC(=O)N[C@@H](CCCNC(=N)N)C(=O)NCC(=O)N[C@@H](CCCNC(=N)N)C(=O)N[C@@H](CCCCN)C(=O)N[C@H](C(=O)N[C@H](C(=O)N[C@@H](CCCNC(=N)N)C(=O)N[C@@H](CCCNC(=N)N)C(=O)N[C@@H](CCCCN)C(=O)N[C@@H](CCCCN)C(=O)O)C(C)C)C(C)C (Octanoyl-RGRKVVRRKK-OH)
- MIC [1]: 10 µM (≈ 14.1 µg/mL)
- EC50 [17]: > 1 mM
- HC10 [3]: > 10000 µg/mL
- MIC [4]: > 80 µM
- Activity [18]: 69.9%
- MIC [5]: 6 µM (≈ 8.45 µg/mL)

Compound: CCCC(=O)N[C@@H](CCCNC(=N)N)C(=O)NCC(=O)N[C@@H](CCCNC(=N)N)C(=O)N[C@@H](CCCCN)C(=O)N[C@H](C(=O)N[C@H](C(=O)N[C@@H](CCCNC(=N)N)C(=O)N[C@@H](CCCNC(=N)N)C(=O)NCCCC[C@H](NC(=O)[C@H](CCCNC(=N)N)NC(=O)[C@H](CCCNC(=N)N)NC(=O)[C@@H](NC(=O)[C@@H](NC(=O)[C@H](CCCCN)NC(=O)[C@H](CCCNC(=N)N)NC(=O)CNC(=O)[C@H](CCCNC(=N)N)NC(=O)CCC)C(C)C)C(C)C)C(=O)N[C@@H](CCCCN)C(=O)O)C(C)C)C(C)C (I: Butyryl-RGRKVVRRKK-OH / II: Butyryl-RGRKVVRR; amide I:9-II:C)
- Activity [25]: >80%
- MIC [1]: 10 µM (≈ 24.3 µg/mL)
- Activity [26]: Active
- EC50 [17]: > 1 mM
- HC10 [3]: > 10000 µg/mL
- MIC [4]: 6 µM (≈ 14.6 µg/mL)
- Activity [18]: 93.4%
- MIC [5]: 3 µM (≈ 7.29 µg/mL)

Compound: CCCCCCCCCC(=O)N[C@@H](CCCNC(=N)N)C(=O)NCC(=O)N[C@@H](CCCNC(=N)N)C(=O)N[C@@H](CCCCN)C(=O)NCC(=O)NCC(=O)N[C@@H](CCCNC(=N)N)C(=O)N[C@@H](CCCNC(=N)N)C(=O)NCCCC[C@H](NC(=O)[C@H](CCCNC(=N)N)NC(=O)[C@H](CCCNC(=N)N)NC(=O)CNC(=O)CNC(=O)[C@H](CCCCN)NC(=O)[C@H](CCCNC(=N)N)NC(=O)CNC(=O)[C@H](CCCNC(=N)N)NC(=O)CCCCCCCCC)C(=O)N[C@@H](CCCCN)C(=O)O (I: Decanoyl-RGRKGGRRKK-OH / II: Decanoyl-RGRKGGRR; amide I:9-II:C)
- MIC ([7]; DR18531, 24 h): 6 µM (≈ 14.6 µg/mL)
- MIC ([8]; DM23376, 24 h): 6 µM (≈ 14.6 µg/mL)
- MIC ([9]; DR4877, 24 h): 6 µM (≈ 14.6 µg/mL)
- MIC [1]: 3 µM (≈ 7.29 µg/mL)
- MIC [10]: 6 µM (≈ 14.6 µg/mL)
- Activity [27]: Active
- MIC ([11]; DM23257, 24 h): 6 µM (≈ 14.6 µg/mL)
- Activity [16]: 44.3%
- EC50 [17]: 0.142 mM
- MIC ([12]; DU14476, 24 h): 3 µM (≈ 7.29 µg/mL)
- MIC ([13]; ATCC 27853, 24 h): 3 µM (≈ 7.29 µg/mL)
- HC10 [3]: > 10000 µg/mL
- MIC [4]: 3 µM (≈ 7.29 µg/mL)
- Activity [18]: 122%
- MIC [5]: 6 µM (≈ 14.6 µg/mL)
- MIC ([14]; DR5790, 24 h): 3 µM (≈ 7.29 µg/mL)
- MIC ([15]; ATCC 9027, 24 h): 6 µM (≈ 14.6 µg/mL)

Compound: GENTAMICIN
- MIC [7]: 30 µM
- MIC [8]: 0.5 µM
- MIC [9]: > 60 µM
- MIC [10]: 0.5 µM
- MIC [19]: 7.5 µM
- MIC [11]: 0.5 µM
- MIC [20]: 2 µM
- MIC [21]: 1 µM
- MIC [22]: < 0.25 µM
- MIC [23]: > 60 µM
- MIC [24]: < 0.25 µM
- MIC [12]: 25 µM
- MIC [13]: 0.5 µM
- MIC [14]: 25 µM
- MIC [15]: 0.25 µM

Compound: CC(=O)N[C@@H](CCCNC(=N)N)C(=O)NCC(=O)N[C@@H](CCCNC(=N)N)C(=O)N[C@@H](CCCCN)C(=O)N[C@H](C(=O)N[C@H](C(=O)N[C@@H](CCCNC(=N)N)C(=O)N[C@@H](CCCNC(=N)N)C(=O)NCCCC[C@H](NC(=O)[C@H](CCCNC(=N)N)NC(=O)[C@H](CCCNC(=N)N)NC(=O)[C@@H](NC(=O)[C@@H](NC(=O)[C@H](CCCCN)NC(=O)[C@H](CCCNC(=N)N)NC(=O)CNC(=O)[C@H](CCCNC(=N)N)NC(C)=O)C(C)C)C(C)C)C(=O)N[C@@H](CCCCN)C(=O)O)C(C)C)C(C)C (I: Ac-RGRKVVRRKK-OH / II: Ac-RGRKVVRR; amide I:9-II:C)
- Activity [25]: >80%
- MIC [1]: 6 µM (≈ 14.2 µg/mL)
- Activity [26]: Active
- EC50 [17]: > 1 mM
- HC10 [3]: > 10000 µg/mL
- MIC [4]: 6 µM (≈ 14.2 µg/mL)
- Activity [18]: 75.7%
- MIC [5]: 6 µM (≈ 14.2 µg/mL)
